Results from ChEMBL document CHEMBL4270621, “Discovery of long-chain salicylketoxime derivatives as monoacylglycerol lipase (MAGL) inhibitors” (Eur J Med Chem, 2018).
Calls of active or inactive are those of the source. The calls are words filed in the database; no cut-off is given here.

Columns and labels:
[1] = target: T1, Monoglyceride lipase (Homo sapiens, UniProt Q99685); test: Inhibition of recombinant human C-terminal His-tagged MAGL expressed in Escherichia coli using 4-NPA as substrate measured after 30 mins
T1 sequence (Q99685 whole entry): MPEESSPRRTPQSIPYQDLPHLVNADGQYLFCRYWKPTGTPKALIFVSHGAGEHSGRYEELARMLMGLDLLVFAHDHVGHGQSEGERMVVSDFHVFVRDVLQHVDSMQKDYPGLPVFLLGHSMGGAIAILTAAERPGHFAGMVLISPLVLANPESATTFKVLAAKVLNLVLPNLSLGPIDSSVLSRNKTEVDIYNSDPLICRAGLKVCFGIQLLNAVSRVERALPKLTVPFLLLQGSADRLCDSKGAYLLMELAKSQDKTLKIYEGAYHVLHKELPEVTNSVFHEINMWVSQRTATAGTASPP

[2] = target: Estrogen receptor beta (Homo sapiens) (UniProt Q92731); test: Displacement of [3H]-estradiol from full length human ERbeta expressed in insect cells after 18 to 24 hrs by radiometric method relative to estradiol
Estrogen receptor beta (Homo sapiens), sequence (Q92731 whole entry): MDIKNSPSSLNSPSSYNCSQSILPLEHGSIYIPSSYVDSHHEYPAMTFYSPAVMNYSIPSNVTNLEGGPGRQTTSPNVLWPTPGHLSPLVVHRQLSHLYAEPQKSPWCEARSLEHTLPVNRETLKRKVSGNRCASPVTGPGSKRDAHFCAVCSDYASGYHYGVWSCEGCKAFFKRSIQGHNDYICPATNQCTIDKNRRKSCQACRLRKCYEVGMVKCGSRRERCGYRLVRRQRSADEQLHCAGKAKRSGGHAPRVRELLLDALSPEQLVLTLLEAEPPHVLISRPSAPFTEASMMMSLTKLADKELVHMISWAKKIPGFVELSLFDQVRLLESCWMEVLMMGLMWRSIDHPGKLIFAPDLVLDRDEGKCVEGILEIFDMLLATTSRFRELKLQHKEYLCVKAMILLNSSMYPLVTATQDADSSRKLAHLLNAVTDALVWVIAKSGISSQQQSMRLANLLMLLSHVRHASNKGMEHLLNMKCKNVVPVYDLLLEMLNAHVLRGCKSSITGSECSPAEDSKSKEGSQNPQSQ

[3] = target: T2, Estrogen receptor (Homo sapiens) (UniProt P03372); test: Displacement of [3H]-estradiol from full length human untagged ERalpha expressed in Sf insect cells after 18 to 24 hrs by radiometric method relative to estradiol
T2 sequence (whole entry): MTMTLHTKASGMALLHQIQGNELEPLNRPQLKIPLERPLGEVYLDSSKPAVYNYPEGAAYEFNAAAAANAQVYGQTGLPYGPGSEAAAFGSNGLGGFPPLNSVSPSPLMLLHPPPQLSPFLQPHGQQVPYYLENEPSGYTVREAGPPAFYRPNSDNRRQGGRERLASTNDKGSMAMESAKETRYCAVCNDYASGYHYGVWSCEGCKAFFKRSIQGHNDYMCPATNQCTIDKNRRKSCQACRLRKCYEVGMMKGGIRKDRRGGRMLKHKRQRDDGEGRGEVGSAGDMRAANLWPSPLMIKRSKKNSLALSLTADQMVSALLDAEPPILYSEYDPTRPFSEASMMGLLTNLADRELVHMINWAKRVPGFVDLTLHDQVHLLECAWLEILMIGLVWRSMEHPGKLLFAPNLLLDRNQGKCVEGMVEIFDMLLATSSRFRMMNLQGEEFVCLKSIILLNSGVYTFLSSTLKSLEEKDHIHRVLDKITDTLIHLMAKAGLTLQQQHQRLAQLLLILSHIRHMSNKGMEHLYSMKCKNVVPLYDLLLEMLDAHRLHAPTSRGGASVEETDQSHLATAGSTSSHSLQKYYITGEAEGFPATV

[4] = test system: SK-OV-3; test: Antiproliferative activity against human SKOV3 cells measured after 96 hrs; assay type: functional, cell-based; settings: SK-OV-3, 96 h
[5] = test system: Caov-3 cell line; test: Antiproliferative activity against human Caov3 cells measured after 96 hrs; assay type: functional, cell-based; settings: Caov-3, 96 h
[6] = test system: MDA-MB-231; test: Antiproliferative activity against human MDA-MB-231 cells measured after 96 hrs; assay type: functional, cell-based; settings: MDA-MB-231, 96 h
[7] = test system: HCT-116; test: Antiproliferative activity against human HCT116 cells measured after 96 hrs; assay type: functional, cell-based; settings: HCT-116, 96 h
[8] = test system: OVCAR-3; test: Antiproliferative activity against human OVCAR3 cells measured after 96 hrs; assay type: functional, cell-based; settings: OVCAR-3, 96 h
[9] = target: T1, Monoglyceride lipase; test: Inhibition of recombinant human C-terminal His-tagged MAGL expressed in Escherichia coli using 4-NPA as substrate pretreated with substrate 15 mins in presence of DTT followed by enzyme addition measured after 30 mins
[10] = target: T3, Cannabinoid receptor 1 (Homo sapiens, UniProt P21554); test: Displacement of [3H]CP55940 from recombinant human CB1 expressed crude membranes after 90 mins by liquid scintillation counting method
T3 sequence (P21554 whole entry): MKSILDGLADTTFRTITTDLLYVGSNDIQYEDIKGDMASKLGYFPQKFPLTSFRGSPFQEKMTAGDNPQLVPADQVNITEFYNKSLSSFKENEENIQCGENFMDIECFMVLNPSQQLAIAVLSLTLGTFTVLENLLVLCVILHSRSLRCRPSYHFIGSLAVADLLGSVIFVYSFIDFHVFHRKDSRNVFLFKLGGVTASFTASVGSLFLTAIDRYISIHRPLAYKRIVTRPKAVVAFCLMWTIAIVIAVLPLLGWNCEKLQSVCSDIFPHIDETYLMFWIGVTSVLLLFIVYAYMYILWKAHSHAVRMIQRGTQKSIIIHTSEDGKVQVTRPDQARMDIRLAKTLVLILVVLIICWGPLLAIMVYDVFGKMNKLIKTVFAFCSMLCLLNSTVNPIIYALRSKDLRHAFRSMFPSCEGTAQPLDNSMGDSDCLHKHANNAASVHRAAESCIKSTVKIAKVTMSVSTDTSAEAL

[11] = target: T4, Fatty-acid amide hydrolase 1 (Homo sapiens, UniProt O00519); test: Inhibition of FAAH in human U937 cells using [ethanolamine-1-3H]AEA as substrate pretreated for 30 mins followed by substrate addition and measured after 15 mins by liquid scintillation counting method; assay type: cell-based
T4 sequence (O00519 whole entry): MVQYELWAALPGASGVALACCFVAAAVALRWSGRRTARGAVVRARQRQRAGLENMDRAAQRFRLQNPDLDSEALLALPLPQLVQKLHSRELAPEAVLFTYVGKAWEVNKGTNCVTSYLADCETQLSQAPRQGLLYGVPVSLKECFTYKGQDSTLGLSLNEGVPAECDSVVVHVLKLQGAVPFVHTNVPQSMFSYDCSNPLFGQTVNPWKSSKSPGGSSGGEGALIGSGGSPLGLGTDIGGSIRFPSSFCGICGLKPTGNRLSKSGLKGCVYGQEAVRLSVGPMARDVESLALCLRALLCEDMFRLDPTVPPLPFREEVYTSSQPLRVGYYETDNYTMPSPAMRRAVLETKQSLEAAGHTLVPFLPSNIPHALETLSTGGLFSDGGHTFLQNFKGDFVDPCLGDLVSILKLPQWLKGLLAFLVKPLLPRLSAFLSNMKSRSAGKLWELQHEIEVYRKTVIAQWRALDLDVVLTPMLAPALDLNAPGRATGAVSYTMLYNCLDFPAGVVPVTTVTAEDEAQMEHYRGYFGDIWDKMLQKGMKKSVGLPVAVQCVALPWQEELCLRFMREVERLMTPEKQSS

[12] = target: T5, Monoglyceride lipase (Homo sapiens) (UniProt Q99685); test: Reversible inhibition of recombinant human C-terminal His-tagged MAGL expressed in Escherichia coli using 4-NPA as substrate pretreated up to 60 mins followed by substrate addition and measured after 30 mins
T5 sequence (whole entry): T1 sequence (Q99685 whole entry)

[13] = target: T5, Monoglyceride lipase (Homo sapiens); test: Reversible inhibition of recombinant human C-terminal His-tagged MAGL expressed in Escherichia coli at 20 uM using 4-NPA as substrate pretreated for 60 mins followed by 40 times compound dilution for 15 mins and subsequent substrate addition measured after 30 mins
[14] = target: T3, Cannabinoid receptor 1; test: Displacement of [3H]CP55940 from recombinant human CB1 expressed in crude membranes at 10 uM after 90 mins by liquid scintillation counting method relative to control; assay type: cell membranes
[15] = target: T1, Monoglyceride lipase; test: Inhibition of recombinant human C-terminal His-tagged MAGL expressed in Escherichia coli using 4-NPA as substrate pretreated with substrate 15 mins followed by enzyme addition measured after 30 mins

Row | SMILES | IC50 [1] [µM] | IC50 [4] [µM] | IC50 [5] [µM] | IC50 [6] [µM] | IC50 [7] [µM] | IC50 [8] [µM] | other results
1 | CCCCCCCCCCCCC/C(=N\O)c1cc(-c2ccc(OC)c(F)c2)ccc1O | > 200 |  |  |  |  |  | 
2 | CC/C(=N\O)c1cc(-c2ccc(O)c(F)c2)ccc1O | 11 |  |  |  |  |  | RBA [2]: 37%; RBA [3]: 2.1%
3 | COc1nn(-c2ccc(NC(=O)OCc3ccccc3)c(C)c2)c(=O)o1 |  | 34 | 92 | 42 | 89 | 50 | 
4 | CCCCCCCCCCCCC/C(=N\O)c1cc(-c2ccc(O)c(F)c2)ccc1O | 0.68 | 26 | 14 | 73 | 11 | 28 | IC50 [9]: 0.7 µM; IC50 [10]: 4.1 µM; IC50 [11]: 8.7 µM; inhibition [12]: Active; inhibition [13]: Active; inhibition [14]: 5%; IC50 [15]: 0.68 µM
5 | CCCCCCCCCCC/C(=N\O)c1cc(-c2ccc(O)c(F)c2)ccc1O | 0.71 | 20 | 11 | 45 | 7.6 | 40 | IC50 [10]: 2.6 µM; IC50 [11]: 4.1 µM; inhibition [14]: 5%
6 | CCCC/C(=N\O)c1cc(-c2ccc(OC)cc2)ccc1O | 119 |  |  |  |  |  | 
7 | CCCCCCCCCCCCCCC/C(=N\O)c1cc(-c2ccc(OC)c(F)c2)ccc1O | > 200 |  |  |  |  |  | 
8 | C/C(=N\O)c1cc(-c2ccc(O)c(F)c2)ccc1O | 34 |  |  |  |  |  | 
